Laboratory results from ChEMBL document CHEMBL1909294, “Translating clinical findings into knowledge in drug safety evaluation--drug induced liver injury prediction system (DILIps)” (PLoS Comput Biol, 2011).

Assays:
[1] = test system: Hepatotoxicity;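 for HepSE Combined Scores: combined hepatic side effect score as listed in the training data of the Drug Induced Liver Injury Prediction System (DILIps)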;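 for HepSE cholelithiasis: hepatic side effect score for cholelithiasis, drawn from the DILIps training data for predicting drug-induced liver injury; call rule not given here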; for HepSE hepatic failure: call rule not given here;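 for HepSE hepatitis: Hepatitis-related hepatic side effect score taken from the training data of DILIps, a prediction system for drug-induced liver injury; call rule not given here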;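 for HepSE jaundice: Jaundice-related hepatic side-effect score drawn from the training data of the DILIps (drug-induced liver injury prediction system); call rule not given here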; for HepSE liver disease: call rule not given here;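 for HepSE liver function tests abnormal: hepatic side effect score taken from the DILIps (drug-induced liver injury prediction system) training data, here covering abnormal liver function test findings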
[2] = test system: Hepatotoxicity; remark: listed apart in the source;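 for HepSE Combined Scores: combined hepatic side effect score as listed in the training data of the Drug Induced Liver Injury Prediction System (DILIps)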;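 for HepSE cholelithiasis: hepatic side effect score for cholelithiasis, drawn from the DILIps training data for predicting drug-induced liver injury; call rule not given here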; for HepSE hepatic failure: call rule not given here;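 for HepSE hepatitis: Hepatitis-related hepatic side effect score taken from the training data of DILIps, a prediction system for drug-induced liver injury; call rule not given here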;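 for HepSE jaundice: Jaundice-related hepatic side-effect score drawn from the training data of the DILIps (drug-induced liver injury prediction system); call rule not given here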; for HepSE liver disease: call rule not given here;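 for HepSE liver function tests abnormal: hepatic side effect score taken from the DILIps (drug-induced liver injury prediction system) training data, here covering abnormal liver function test findings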
[3] = test system: Hepatotoxicity; remark: listed apart in the source;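 for HepSE Combined Scores: combined hepatic side effect score as listed in the training data of the Drug Induced Liver Injury Prediction System (DILIps)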;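 for HepSE cholelithiasis: hepatic side effect score for cholelithiasis, drawn from the DILIps training data for predicting drug-induced liver injury; call rule not given here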; for HepSE hepatic failure: call rule not given here;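 for HepSE hepatitis: Hepatitis-related hepatic side effect score taken from the training data of DILIps, a prediction system for drug-induced liver injury; call rule not given here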;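 for HepSE jaundice: Jaundice-related hepatic side-effect score drawn from the training data of the DILIps (drug-induced liver injury prediction system); call rule not given here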; for HepSE liver disease: call rule not given here;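 for HepSE liver function tests abnormal: hepatic side effect score taken from the DILIps (drug-induced liver injury prediction system) training data, here covering abnormal liver function test findings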
[4] = test system: Hepatotoxicity; remark: listed apart in the source;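 for HepSE Combined Scores: combined hepatic side effect score as listed in the training data of the Drug Induced Liver Injury Prediction System (DILIps)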;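 for HepSE cholelithiasis: hepatic side effect score for cholelithiasis, drawn from the DILIps training data for predicting drug-induced liver injury; call rule not given here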;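 for HepSE hepatitis: Hepatitis-related hepatic side effect score taken from the training data of DILIps, a prediction system for drug-induced liver injury; call rule not given here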;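 for HepSE jaundice: Jaundice-related hepatic side-effect score drawn from the training data of the DILIps (drug-induced liver injury prediction system); call rule not given here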; for HepSE liver disease: call rule not given here;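 for HepSE liver function tests abnormal: hepatic side effect score taken from the DILIps (drug-induced liver injury prediction system) training data, here covering abnormal liver function test findings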
[5] = test system: Hepatotoxicity; remark: listed apart in the source; for HepSE liver disease: call rule not given here
[6] = test system: Hepatotoxicity; remark: listed apart in the source; for HepSE liver disease: call rule not given here
[7] = test system: Hepatotoxicity; remark: listed apart in the source
[8] = test system: Hepatotoxicity; remark: listed apart in the source
[9] = test system: Hepatotoxicity; remark: listed apart in the source
[10] = test system: Hepatotoxicity; remark: listed apart in the source
[11] = test system: Hepatotoxicity; remark: listed apart in the source
[12] = test system: Hepatotoxicity; remark: listed apart in the source
[13] = test system: Hepatotoxicity; remark: listed apart in the source
[14] = test system: Hepatotoxicity; remark: listed apart in the source

Row | SMILES | HepSE_hepatitis [1] | HepSE_Combined Scores [2] | HepSE_jaundice [3] | HepSE_liver function tests abnormal [4] | HepSE_hepatic necrosis [5] | HepSE_cholelithiasis [6] | HepSE_liver disease [7] | HepSE_bilirubinemia [8] | HepSE_hepatic failure [9] | HepSE_cholecystitis [10] | HepSE_liver fatty [11] | HepSE_hepatomegaly [12] | HepSE_cirrhosis [13] | HepSE_elevated liver function tests [14] | other results
1 | Cc1cccc(C)c1NC(=O)C1CCCCN1C (configuration not stated) [MEPIVACAINE] | 0 | 0 | 0 | 0 | 0 | 0 | 0 | 0 | 0 | 0 | 0 | 0 | 0 | 0 | 
2 | CC1(C)O[C@@H]2C[C@H]3[C@@H]4CCC5=CC(=O)C=C[C@]5(C)[C@H]4[C@@H](O)C[C@]3(C)[C@]2(C(=O)CO)O1 [DESONIDE] | 0 | 0 | 0 | 0 | 0 | 0 | 0 | 0 | 0 | 0 | 0 | 0 | 0 | 0 | 
3 | CCC[C@@H]1C[C@@H](C(=O)N[C@@H]([C@H]2O[C@H](SC)[C@H](O)[C@@H](O)[C@H]2O)[C@H](C)Cl)N(C)C1 [CLINDAMYCIN] | 0 | 1 | 1 | 0 | 0 | 0 | 0 | 0 | 0 | 0 | 0 | 0 | 0 | 0 | 
4 | CC(=O)N(O)CCCCCNC(=O)CCC(=O)N(O)CCCCCNC(=O)CCC(=O)N(O)CCCCCN [DEFEROXAMINE] | 0 | 0 | 0 | 0 | 0 | 0 | 0 | 0 | 0 | 0 | 0 | 0 | 0 | 0 | 
5 | CC1=C(C(=O)O)N2C(=O)[C@@H](NC(=O)[C@H](N)c3ccc(O)cc3)[C@H]2SC1 [CEFADROXIL] | 0 | 1 | 0 | 0 | 0 | 0 | 0 | 0 | 1 | 0 | 0 | 0 | 0 | 0 | 
6 | NS(=O)(=O)c1cc2c(cc1Cl)N=CNS2(=O)=O [CHLOROTHIAZIDE] | 0 | 1 | 1 | 0 | 0 | 0 | 0 | 0 | 0 | 0 | 0 | 0 | 0 | 0 | 
7 | C=CC(N)CCC(=O)O (configuration not stated) [VIGABATRIN] | 0 | 0 | 0 | 0 | 0 | 0 | 0 | 0 | 0 | 0 | 0 | 0 | 0 | 0 | 
8 | CC(C)(O/N=C(\C(=O)N[C@@H]1C(=O)N2C(C(=O)[O-])=C(C[n+]3ccccc3)CS[C@H]12)c1csc(N)n1)C(=O)O [CEFTAZIDIME] | 0 | 2 | 1 | 0 | 0 | 0 | 0 | 1 | 0 | 0 | 0 | 0 | 0 | 0 | 
9 | O=NN(CCCl)C(=O)NC1CCCCC1 [LOMUSTINE] | 0 | 0 | 0 | 0 | 0 | 0 | 0 | 0 | 0 | 0 | 0 | 0 | 0 | 0 | 
10 | NCCC(O)(P(=O)(O)O)P(=O)(O)O [PAMIDRONIC ACID] | 0 | 1 | 0 | 1 | 0 | 0 | 0 | 0 | 0 | 0 | 0 | 0 | 0 | 0 | 
11 | c1cnc2cc3c(cc2n1)[C@@H]1CNC[C@H]3C1 [VARENICLINE] | 0 | 1 | 0 | 1 | 0 | 0 | 0 | 0 | 0 | 0 | 0 | 0 | 0 | 0 | 
12 | CC(C)c1cccc(C(C)C)c1O [PROPOFOL] |  |  |  |  |  |  |  |  |  |  |  |  |  |  | HepSE_hepatitis ([1]; Liver): 0; HepSE_Combined Scores ([2]; Liver): 1; HepSE_jaundice ([3]; Liver): 0; HepSE_liver function tests abnormal ([4]; Liver): 0; HepSE_hepatic necrosis ([5]; Liver): 0; HepSE_cholelithiasis ([6]; Liver): 0; HepSE_liver disease ([7]; Liver): 0; HepSE_bilirubinemia ([8]; Liver): 0; HepSE_hepatic failure ([9]; Liver): 0; HepSE_cholecystitis ([10]; Liver): 0; HepSE_liver fatty ([11]; Liver): 0; HepSE_hepatomegaly ([12]; Liver): 1; HepSE_cirrhosis ([13]; Liver): 0; HepSE_elevated liver function tests ([14]; Liver): 0
13 | CC(C)CN(C[C@@H](O)[C@H](Cc1ccccc1)NC(=O)O[C@H]1CO[C@H]2OCC[C@H]21)S(=O)(=O)c1ccc(N)cc1 | 1 | 5 | 1 | 0 | 0 | 0 | 0 | 1 | 1 | 0 | 0 | 0 | 1 | 0 | 
